# Laboratory results from US12589122B2, “Methods and compositions for treating infectious, autoimmune, and allergic disease” (The University of Chicago, priority 2018, dated 2026).
# “Also recorded” adds a separate entry of the source.
# What was measured:
# A. caccae_lah [1] = assay: In vitro fermentation in PY broth, monoculture growth (OD600); assay type: cell-based, Anaerostipes caccae; settings: 48 h; for Growth of A. caccae_lah / Growth of A. caccae_lah (OD600): monoculture; for Growth of A. caccae_lah: PY broth supplemented with 33 mM acetate and/or 40 mM lactate; for Growth of A. caccae_lah (OD600): PY broth supplemented with 10 mg/ml carbohydrates
# Method: (§1) This method of preculture is used for all future in vitro fermentation experiments. Then 10 μl of preculture was transferred into 7 mL minimal peptone yeast (PY) broth alone or supplemented with 10 mg/ml of glucose, sucrose, lactose, cellobiose, or potato starch. All of these variations of PY were pre-reduced anaerobically prepared by Anaerobe Systems. Growth and butyrate production were measured after 48 h. […] Butyrate in solution is quantified by HPLC-UV-Vis as described in reference 61 and 62. […] These simple sugars are similar to those found in infant formula. […] These are the same formulas consumed by the healthy (Enfamil®) and CMA (Nutramigen®) infant donors and are also consumed by all mice colonized with these respective microbiomes. […] All groups were analyzed by one way ANOVA. *P<0.05, **P<0.01, ***P<0.001, ****P<0.0001 versus PY.
# (§2) Other groups have shown that primary degraders, namely Bacteroides species, break down complex fibers and produce metabolites lactate and acetate which Clostridia species can then consume to produce butyrate (59). […] Growth and butyrate production were measured after 48 h. […] All groups were analyzed by one way ANOVA. *P<0.05, **P<0.01, ***P<0.001, ****P<0.0001 versus PY alone.
# A. caccae_lah [2] = assay: In vitro fermentation in PY broth, monoculture butyrate production (HPLC-UV-Vis); assay type: cell-based, Anaerostipes caccae; settings: for lactate or acetate in the media at 48 h: A. caccae_lah monoculture, Nutramigen plus 40 mM lactate+33 mM acetate; for butyrate production by A. caccae_lah: monoculture, PY broth supplemented with 10 mg/ml carbohydrates, 48 h
# Method: as §1, §2
# A. caccae_lah [3] = assay: Antibiotic susceptibility by growth inhibition around antibiotic discs; assay type: cell-based, Anaerostipes caccae; settings: discs 10 μg ampicillin, 30 μg tetracycline; BHI agar, 37° C. anaerobic, six days
# Method: Plates are incubated at 37° C. in anaerobic conditions for six days.
# [4] = test system: Ror2, Fbp1, Tgfbr3, Acot12 and Me1 in ileal IECs; assay: qPCR gene expression in ileal IECs; assay type: in vivo, mouse; settings: A. caccae monocolonized compared to GF or CMA-colonized mice
# Method: Epithelial cell isolation. As in sensitization experiments, mice were weaned at 3 weeks of age and placed on infant formula prior to colonization. Seven days after colonization, mice were euthanized and ileum was removed. For IEC isolation, tissues were cleaned and inverted as described in ref (43). IECs were collected by inflating inverted tissue in Cell Recovery Solution (Corning) every 5 minutes for 30 minutes. IEC samples were lysed in TRIZol (ThermoFisher) and RNA was extracted with PureLink RNA Mini Kit (Ambion) plus on-column DNAse treatment (PureLink DNAse Set, Ambion).
# qPCR. Gene expression was measured by qPCR as described in reference 7. In brief, cDNA was prepared from RNA using the iScript cDNA Synthesis kit (BioRad). Gene expression was measured with PowerUp SYBR green master mix (Applied Biosystems) according to the manufacturer's instructions. Primers are listed in Supplementary Table 7 (20, 50-54). Expression of genes of interest was normalized to Hprt. Relative expression was measured using ΔΔCt centered around the geometric mean; GF mice were used as a reference.
# BLG-specific IgE = assay: Serum BLG-specific IgE ELISA after challenge; assay type: in vivo, mouse; settings: A. caccae monocolonized vs CMA colonized mice
# Excerpt: (§3) Food allergen sensitization and challenge. Protocols were adapted from reference 7. All mice were weaned onto a plant-based mouse chow (Purina Lab Diet® 5K67) at 3 weeks of age. GF mice received autoclaved sterile water. For mice colonized with feces from infant donors, or monocolonized with A. caccae, the drinking water was replaced by formula four hours prior to colonization. Mice colonized with healthy feces or A. caccae received Enfamil®; CMA colonized mice received Nutramigen® (both from Mead Johnson). On day 0, one week post weaning (GF) or colonization (healthy/A. caccae/CMA), all mice were fasted for 4 hours and then given a gavage of 200 mM sodium bicarbonate. 30 minutes later, mice were given 20 mg BLG (Sigma) plus 10 μg CT (List Biologicals). This protocol was repeated weekly for 5 weeks. For formula-fed mice, formula was replaced by sterile water for the week after the last sensitization. Prior to challenge on day 42, mice were fasted for 4 hours and given sodium bicarbonate by gavage. Two doses of 100 mg BLG each were then administered via intragastric gavage 30 minutes apart. Core body temperature was measured in a blinded fashion prior to allergen challenge and every 5 minutes after the first challenge until at least 30 minutes after the second challenge using a rectal probe (PhysiTemp). Serum was collected 1 hour after the second challenge to measure mMCPT-1 levels.
# IL-4 = assay: Splenocyte cytokine ELISA after BLG stimulation (IL-4); assay type: cell-based, mouse; settings: sacrificed 24 h post challenge, stimulated 72 h with BLG; A. caccae vs CMA colonized
# Method: (§4) For cytokine analysis spleens were harvested 24 h post challenge from A. caccae or CMA colonized mice sensitized with BLG+CT for 5 weeks. Splenocytes were stimulated at a concentration of 2×10^6 cells/ml at 37° C., 10% CO2 with 10 mg/ml BLG (Sigma) in cDMEM (with 4% FCS (HyClone), 10 mM HEPES (Gibco), 100 U/ml Penicillin/Streptomycin (Gibco) and 55 μM 2-mercaptoethanol (Gibco). Cytokine concentrations in 72 hr culture supernatants were determined by ELISA for IL-13 and IL-4 (both from Invitrogen).
# BLG-specific IgG1 = assay: Serum BLG-specific IgG1 ELISA after challenge; assay type: in vivo, mouse; settings: A. caccae monocolonized vs CMA colonized mice
# Excerpt: as §3
# IL-13 = assay: Splenocyte cytokine ELISA after BLG stimulation (IL-13); assay type: cell-based, mouse; settings: sacrificed 24 h post challenge, stimulated 72 h with BLG; A. caccae vs CMA colonized
# Method: as §4
# mMCPT-1 = assay: Serum mMCPT-1 ELISA 1 hour after second challenge; assay type: in vivo, mouse; settings: A. caccae monocolonized compared to CMA colonized mice
# Excerpt: as §3
# [5] = test system: BLG plus CT sensitized mice, anaphylactic response to BLG challenge; assay type: in vivo, C3H/HeN mice
molecule,measurement,setting,value
CC(=O)O [acetate],Growth of A. caccae_lah,A. caccae_lah [1],significant growth
same,lactate or acetate in the media at 48 h,A. caccae_lah [2],no detectable
CC1(C)S[C@@H]2[C@H](NC(=O)[C@H](N)c3ccccc3)C(=O)N2[C@H]1C(=O)O [ampicillin],antibiotic susceptibility of A. caccae_lah (zone of clearance),A. caccae_lah [3],highly susceptible
O=C[C@H](O)[C@@H](O)[C@H](O[C@@H]1O[C@H](CO)[C@@H](O)[C@H](O)[C@H]1O)[C@H](O)CO [cellobiose],butyrate production by A. caccae_lah,A. caccae_lah [2],not able to produce significant butyrate
CC(O)C(=O)O (centres unmarked) [lactate],Growth of A. caccae_lah,A. caccae_lah [1],significant growth
same,lactate or acetate in the media at 48 h,A. caccae_lah [2],no detectable
OC[C@H]1O[C@@H](O[C@H]2[C@H](O)[C@@H](O)C(O)O[C@@H]2CO)[C@H](O)[C@@H](O)[C@H]1O (some centres unmarked) [lactose],fermentation by A. caccae_lah in monoculture,A. caccae_lah [1]; minimal PY broth supplemented with 10 mg/ml carbohydrates,can ferment
same,Growth of A. caccae_lah (OD600),A. caccae_lah [1],grew abundantly
same,butyrate production by A. caccae_lah,A. caccae_lah [2],produced the most butyrate
OC[C@H]1O[C@@](CO)(O[C@H]2O[C@H](CO)[C@@H](O)[C@H](O)[C@H]2O)[C@@H](O)[C@@H]1O [sucrose],Growth of A. caccae_lah (OD600),A. caccae_lah [1],grew abundantly
same,butyrate production by A. caccae_lah,A. caccae_lah [2],produced the most butyrate
Anaerostipes caccae [A. caccae],Fbp1 gene expression in ileal IECs (qPCR),[4],significantly upregulated
same,Tgfbr3 gene expression in ileal IECs (qPCR),[4],significantly upregulated
same,serum BLG-specific IgE,BLG-specific IgE,reduced
same,IL-4 in culture supernatants of splenocytes,IL-4,reduced
same,serum BLG-specific IgG1,BLG-specific IgG1,reduced
same,IL-13 in culture supernatants of splenocytes,IL-13,reduced
same,serum concentrations of mMCPT-1,mMCPT-1,significantly reduced
same,changes in core body temperature after BLG challenge,[5]; A. caccae monocolonized compared to CMA colonized mice,significantly reduced
same,anaphylactic response to BLG challenge,[5]; BLG plus CT sensitized A. caccae monocolonized mice,protected against an anaphylactic response to BLG challenge; also recorded: protects against an allergic response to food
